Results on one compound are retold here after patent US20200316096A1, “COMBINATION OF DIET AND DRUG THERAPY FOR TREATING CANCER” (Trustees of Boston College, priority 2019, published 2020).

The conditions of series [1]: shown previously (ref 33); cited from earlier work.
Another series relates to VM-M3 tumour. The series is described as follows: VM-M3 orthotopic GBM model: bioluminescence imaging and survival. In kind it is in vivo, mouse (VM/Dk). The procedure: FIGS. 1A-1F. Restricted Ketogenic diet with DON reduces progression and mortality of the VM-M3 GBM. VM/Dk inbred mice were implanted orthotopically with a small (1.0 mm×1.0 mm) tissue fragment from the VM-M3 tumour on day 0. The implanted mice were divided into two groups on day 4 and were fed either; a standard chow diet unrestricted or ad-libitum (SD-UR), or a ketogenic diet (KD-R) in restricted amounts to reduce body weight by about 15%. DON (0.1-1.0 mg/kg) was injected i.p. 7 days following orthotopic tumour implantation. […] 1A. All mice were imaged in-vivo and terminated on day 14 or 15 when all control mice appeared moribund (experiments 1 & 2). For experiment 1, bioluminescence was scored from 0-4, following the administration of lower doses of DON (0.1 and 0.5 mg/kg). Values are expressed as the mean+/−SEM and a one-way analysis of variance followed by Tukey's post hoc test was performed to determine the significance between groups, FIG. 1B. In experiment 2, in-vivo bioluminescent photon values were obtained following the administration of DON (1.0 mg/kg) in mice under the KD-R, FIG. 1C. The average in-vivo bioluminescent photon values were calculated for the KD-R (n=4) and KD-R+DON (n=8) mice in experiment 2. Values are presented as the mean+/−SEM and the P value was calculated using a two-tailed student's t-test, FIG. 1D. in-vivo bioluminescent images of 3 representative mice from both study groups in experiment 2 are shown, FIG. 1E. For experiment 3, a survival study was performed, and a Kaplan Meier survival plot was configured for SD-UR (n=15), SD-UR+DON (n=10), KD-R (n=10), and KD-R+DON (n=10), FIG. 1F.
FIGS. 2A-2C. Restricted Ketogenic diet with DON reduces VM-M3 GBM bioluminescence. VM/Dk mice were implanted with a VM-M3 tumour as described in the previous figures. Mouse brains were imaged ex-vivo on day 14 or 15. Mice were imaged ex-vivo after in-vivo bioluminescent imaging, as described in the previous figures. Individual ex-vivo bioluminescent photon values were measured following the administration of DON (1.0 mg/kg) in KD-R mice, FIG. 2A. From the individual measurements, the average ex-vivo bioluminescent photon value was calculated for both the KD-R (n=6) and KD-R+DON (n=8) mouse groups. Values are presented as the mean+/−SEM and significance of differences was determined following a two-tailed student's t-test, FIG. 2B. ex-vivo bioluminescent images of brains from representative mice in experiment 2 are shown in comparison to SD-UR, FIG. 2C.
To observe the effect of the KD-R and DON on the VM-M3 tumour model, three consecutive experiments were conducted. Experiment 1 included four groups (SD-UR; SD-UR+DON; KDR; KDR+DON) with lower DON dosages (0.1 and 0.5 mg/kg). Experiment 2 involved both in-vivo and ex-vivo imaging of two study groups (KD-R and KD-R+DON) following the administration of a higher dose of DON (1.0 mg/kg). Experiment 3, a survival study, also used the higher DON dose (1.0 mg/kg) and included the four groups from Experiment 1 (SD-UR; SD-UR+DON; KDR; KDR+DON) ( ).
The KD-R+DON treatment was performed as outlined in the study timeline (FIG. 1A). In experiment 1, two doses of DON (0.1 and 0.5 mg/kg) were used in both the SD-UR and KD-R groups (FIG. 1B). d-luciferin was injected i.p. 15 days after tumour implantation, and in-vivo bioluminescence imaging was performed. The total VM-M3 tumour bioluminescence photon values were scored from 0 to 4, with 0 being the baseline value and 4 being the highest value.
Experiment 2 involved a larger number of mice that were treated with a higher dose of DON (1.0 mg/kg). Due to the observed synergy between the KD-R and DON in experiment 1, only the KD-R group was selected for further experiments. All mice in this experiment expressed a significant amount of tumour burden as observed by in-vivo imaging on day 7 (data not shown). […] All untreated SD-UR control mice died between day 15 and 18. […]

In the case of `[N-]=[N+]=CC(=O)CC[C@H](N)C(=O)O` [DON, 6-diazo-5-oxo-L-norleucine], the “toxic effects in C57BL/6J mice” value in series [1] is reported as “no toxic effects”. Moreover, the “reduction in tumour growth” value with VM-M3 tumour (DON 0.5 mg/kg once or twice per week, bioluminescent imaging) lay in the range of 60 to 70%. In addition, the “resolution of the brain tumour” value in the series on VM-M3 tumour (DON 1.0 mg/kg, same schedule, bioluminescent imaging) is recorded as “near complete resolution”. The “lower photon value compared to control SD-UR group” value with VM-M3 tumour (experiment 1, DON 0.1 and 0.5 mg/kg, in-vivo bioluminescence day 15) stood at 44%. Besides, the “average ex-vivo photon value” in the series on VM-M3 tumour (experiment 2, DON 1.0 mg/kg, FIG. 2B) is “significant reduction”. In addition, the “mice with baseline value of in-vivo bioluminescence” value in the series on VM-M3 tumour (experiment 2, KD-R fed mice, DON 1.0 mg/kg, day 14 or 15) is given as 7 out of the 8. Further, in the series with VM-M3 tumour (experiment 2, KD-R fed mice, DON 1.0 mg/kg, resected brains), the “individual ex-vivo bioluminescent values” was “below the baseline value”. Further, in the series with VM-M3 tumour (experiment 2, KD-R fed mice, DON 1.0 mg/kg, versus KD-R), the “average in-vivo photon value” is listed as “significant reduction”.
